Earlier results in patent publication US7491718B2, “Sulfonamides having antiangiogenic and anticancer activity” (Abbott Laboratories, priority 2002, dated 2009).

Molecular target: type 2-methionine aminopeptidase (MetAP-2) (Homo sapiens, UniProt P50579)
Conditions: reported in Proc. Natl. Acad. Sci. USA 94: 6099-6103 (1997) and Chemistry and Biology, 4(6): 461-471 (1997)

Sequence of type 2-methionine aminopeptidase (MetAP-2) (P50579 whole entry, species assumed): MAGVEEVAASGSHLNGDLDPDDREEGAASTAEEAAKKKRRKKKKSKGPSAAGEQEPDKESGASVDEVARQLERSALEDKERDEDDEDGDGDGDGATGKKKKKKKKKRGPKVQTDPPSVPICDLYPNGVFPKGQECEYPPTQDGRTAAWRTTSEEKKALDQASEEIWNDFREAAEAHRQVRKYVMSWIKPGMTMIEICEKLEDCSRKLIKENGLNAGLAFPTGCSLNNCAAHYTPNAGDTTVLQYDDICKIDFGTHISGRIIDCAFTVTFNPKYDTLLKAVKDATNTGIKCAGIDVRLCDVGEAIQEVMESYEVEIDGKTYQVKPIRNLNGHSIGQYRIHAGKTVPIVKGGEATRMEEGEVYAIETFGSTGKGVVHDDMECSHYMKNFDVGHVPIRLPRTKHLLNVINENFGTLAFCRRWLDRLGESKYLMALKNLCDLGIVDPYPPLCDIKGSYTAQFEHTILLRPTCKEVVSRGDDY

Structure (SMILES): CO[C@@H]1[C@H](OC(=O)NC(=O)CCl)CC[C@]2(CO2)[C@H]1[C@@]1(C)O[C@@H]1CC=C(C)C [AGM-1470]
- binding to MetAP-2: bind
